Laboratory results from patent US20180273528A1 (LES LABORATOIRES SERVIER, priority 2015, published 2018).

What was measured:
[1] = molecular target: T1, His-TEV-DYRK1A Kinase domain (aa127-485) (Homo sapiens, UniProt Q13627); assay: Kinase ADP assay (ADP Hunter), DYRK1A kinase domain; assay type: biochemical; conditions: 20 μM ATP
T1 construct: His-TEV-DYRK1A Kinase domain (aa127-485); His tag (N); TEV protease cleavage site (N)
How it was run: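 Compounds incubated 10 min at 30 °C with 20 nM enzyme, 40 μM peptide substrate and 20 μM ATP in pH 7.4 Hepes buffer with 10 mM MgCl2. ADP formed detected by ADP Hunter Plus reagents after 20 min at 30 °C, fluorescence read at 590 nm.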

DYRK1B = molecular target: T2, DYRK1B (Homo sapiens, UniProt Q9Y463); assay: Kinase TR-FRET assay, DYRK1B; assay type: biochemical; conditions: full-length human kinase, 10 μM ATP
T2 construct: full-length human kinases from Carna Biosciences; purchased Carna Biosciences 04-131
Experimental: Inhibition of the enzymatic activity of human kinases was evaluated in a Time-Resolved Fluorescence Resonance Energy Transfer (TR-FRET) assay in 384-well reaction plates. […] Test compounds of the invention were added in reaction buffer at a range of concentrations from 0.1 nM to 30 μM. Following addition of EDTA (Sigma E7889, 10 mM) to stop the reaction, Europium-labelled mouse monoclonal antibody recognizing phospho-Thr232 in MBP (Perkin Elmer TRF0201, 1 nM) was added.

CDK9 = molecular target: T3, CDK9 (Homo sapiens, UniProt P50750); assay: Kinase TR-FRET assay, CDK9; assay type: biochemical; conditions: full-length human kinase, 10 μM ATP
T3 construct: full-length human kinases from Carna Biosciences; purchased Carna Biosciences 04-110
Experimental: Inhibition of the enzymatic activity of human kinases was evaluated in a Time-Resolved Fluorescence Resonance Energy Transfer (TR-FRET) assay in 384-well reaction plates. In this assay, full-length human kinases from Carna Biosciences—DYRK1A (NM_001396, ref. 04-130; 2.0 ng/μl), DYRK1B (NM_004714, ref. 04-131; 1.2 ng/p), CLK1 (NM_001162407, ref. 04-126; 0.7 ng/μl), CDK9 (NM_001261, ref. 04-110; 0.9 ng/μl), or GSK3β (NM_001146156, ref. 04-141; 2.0 ng/μl—were incubated for 40 minutes (DYRK1A and DYRK1B) or 100 minutes (CLK1, CDK9 and GSK3β) at room temperature with ATP (Sigma A2383, 10 μM) and a ULight™-labelled human Myelin Basic Protein (MBP) peptide substrate (Perkin Elmer TRF0109, 100 nM) in a reaction buffer composed of 50 mM HEPES pH7.4, 1 mM EGTA, 10 mM MgCl2, 2 mM DTT and 0.01% Tween20. Test compounds of the invention were added in reaction buffer at a range of concentrations from 0.1 nM to 30 μM. Following addition of EDTA (Sigma E7889, 10 mM) to stop the reaction, Europium-labelled mouse monoclonal antibody recognizing phospho-Thr232 in MBP (Perkin Elmer TRF0201, 1 nM) was added. After one hour, the reaction plates were read using a fluorescence reader (EnVision®, Perkin Elmer) at 620 nm and 665 nm (excitation at 340 nm); when the Europium donor fluorophore is excited by light at 340 nm, an energy transfer (620 nm) to the acceptor occurs, which will then emit light at 665 nm.

DYRK1A [2] = molecular target: T4, DYRK1A (Homo sapiens, UniProt Q13627); assay: Kinase TR-FRET assay, DYRK1A; assay type: biochemical; design: full-length, wild-type human DYRK1A (NM_001396) with an HA tag; expressed in transfected cells; host or cells: human U2-OS osteosarcoma cells, transient transfection of a pcDNA3.1 plasmid; conditions: full-length human kinase, 10 μM ATP
How it was run: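 Compounds tested at 0.1 nM to 30 μM in reaction buffer; reaction stopped with 10 mM EDTA. Phosphorylated MBP detected with 1 nM Europium-labelled anti-phospho-Thr232 antibody by TR-FRET.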

DYRK1A [3] = molecular target: T4, DYRK1A; assay: Cellular DYRK1 autophosphorylation assay in U2-OS cells; assay type: cell-based; design: full-length, wild-type human DYRK1A (NM_001396) with an HA tag; expressed in transfected cells; host or cells: human U2-OS osteosarcoma cells, transient transfection of a pcDNA3.1 plasmid; conditions: U2-OS cells transfected with HA-tagged human DYRK1A, 5 hours exposure; read-out: IC50 (μM) P-Ser520-Dyrk1A -Cell assay
How it was run: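 U2-OS cells treated with a compound concentration range for 5 h. Phospho-Ser520-DYRK1A measured by western blot densitometry or Mesoscale ELISA. IC50 from dose-response curves; for blots, ratio of phospho-Ser520 to total DYRK1A signal.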

T3 sequence (P50750 whole entry): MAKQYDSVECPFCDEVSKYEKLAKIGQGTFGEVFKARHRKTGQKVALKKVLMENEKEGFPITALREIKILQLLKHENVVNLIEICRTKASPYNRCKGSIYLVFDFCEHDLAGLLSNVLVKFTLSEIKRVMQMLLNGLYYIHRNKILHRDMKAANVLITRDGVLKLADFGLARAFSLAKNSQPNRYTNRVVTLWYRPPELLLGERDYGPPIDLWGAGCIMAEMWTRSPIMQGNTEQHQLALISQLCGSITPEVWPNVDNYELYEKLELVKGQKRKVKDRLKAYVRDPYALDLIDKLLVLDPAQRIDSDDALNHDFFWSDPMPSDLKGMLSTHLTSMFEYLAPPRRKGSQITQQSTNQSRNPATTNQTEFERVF
T3 sequence (O60563 whole entry partner): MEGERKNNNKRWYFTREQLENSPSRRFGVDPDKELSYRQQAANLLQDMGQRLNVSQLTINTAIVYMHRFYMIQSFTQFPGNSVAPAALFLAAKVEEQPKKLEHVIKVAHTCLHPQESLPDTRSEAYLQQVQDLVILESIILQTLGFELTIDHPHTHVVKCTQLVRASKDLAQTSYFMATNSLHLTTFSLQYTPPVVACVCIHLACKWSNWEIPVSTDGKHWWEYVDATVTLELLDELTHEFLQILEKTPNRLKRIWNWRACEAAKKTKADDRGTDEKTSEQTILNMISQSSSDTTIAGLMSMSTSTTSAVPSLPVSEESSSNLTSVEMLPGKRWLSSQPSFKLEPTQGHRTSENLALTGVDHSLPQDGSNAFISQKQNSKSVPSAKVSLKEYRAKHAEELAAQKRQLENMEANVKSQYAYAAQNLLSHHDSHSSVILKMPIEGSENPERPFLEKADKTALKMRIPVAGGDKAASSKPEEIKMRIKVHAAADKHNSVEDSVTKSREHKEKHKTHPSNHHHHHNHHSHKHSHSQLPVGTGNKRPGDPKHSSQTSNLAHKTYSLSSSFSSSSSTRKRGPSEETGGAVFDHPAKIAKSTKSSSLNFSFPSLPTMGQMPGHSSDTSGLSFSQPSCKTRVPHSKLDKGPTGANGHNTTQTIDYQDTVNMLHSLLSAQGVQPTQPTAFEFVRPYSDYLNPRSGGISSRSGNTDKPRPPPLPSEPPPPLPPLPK
T2 sequence (Q9Y463 whole entry): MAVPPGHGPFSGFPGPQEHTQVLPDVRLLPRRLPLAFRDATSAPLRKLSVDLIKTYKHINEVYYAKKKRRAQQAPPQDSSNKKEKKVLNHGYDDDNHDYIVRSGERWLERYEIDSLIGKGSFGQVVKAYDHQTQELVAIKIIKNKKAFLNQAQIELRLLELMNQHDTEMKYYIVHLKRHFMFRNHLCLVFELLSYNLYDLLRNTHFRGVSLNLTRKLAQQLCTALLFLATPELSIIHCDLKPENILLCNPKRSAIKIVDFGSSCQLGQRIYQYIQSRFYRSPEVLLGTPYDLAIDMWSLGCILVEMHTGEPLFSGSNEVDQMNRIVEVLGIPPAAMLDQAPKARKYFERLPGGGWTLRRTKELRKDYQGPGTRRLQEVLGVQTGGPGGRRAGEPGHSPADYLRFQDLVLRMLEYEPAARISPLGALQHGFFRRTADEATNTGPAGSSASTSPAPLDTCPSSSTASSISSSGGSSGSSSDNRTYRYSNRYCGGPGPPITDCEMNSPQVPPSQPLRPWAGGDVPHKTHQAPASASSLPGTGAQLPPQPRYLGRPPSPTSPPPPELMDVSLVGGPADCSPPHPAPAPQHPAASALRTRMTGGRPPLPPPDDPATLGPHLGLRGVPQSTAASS

| SMILES | IC50 [1] | IC50 (DYRK1B) | IC50 (CDK9) | IC50 (DYRK1A [2]) | IC50 (DYRK1A [3]) |
| --- | --- | --- | --- | --- | --- |
| Cc1nc2ccc(-c3cc(N)nc(N)c3)nc2n1CCc1ccco1 [Example 19, 4-{3-[2-(furan-2-yl)ethyl]-2-methyl-3H-imidazo[4,5-b]pyridin-5-yl}pyridine-2,6-diamine] | 0.012 µM | 0.003 µM | 1.95 µM | 0.003 µM | 0.226 µM |
| Cc1nc2ccc(-c3cc(N)nc(N)c3)nc2n1C(C)(C)C [Example 25, 4-(3-tert-butyl-2-methyl-3H-imidazo[4,5-b]pyridin-5-yl)pyridine-2,6-diamine] | 0.01 µM | 0.006 µM | 1.84 µM | 0.007 µM | 0.228 µM |
| Cc1nc2ccc(-c3cc(N)nc(N)c3)nc2n1CCc1ccsc1 [Example 29, 4-{2-methyl-3-[2-(thiophen-3-yl)ethyl]-3H-imidazo[4,5-b]pyridin-5-yl}pyridine-2,6-diamine] | 0.011 µM | 0.011 µM | 3.44 µM | 0.004 µM | 0.057 µM |
| Cc1nc2ccc(-c3cc(N)nc(N)c3)nc2n1CC1CCOC1 (stereo not shown) [Example 41, 4-[2-methyl-3-(tetrahydrofuran-3-ylmethyl)-3H-imidazo[4,5-b]pyridin-5-yl]pyridine-2,6-diamine] | 0.011 µM | 0.011 µM | 2.71 µM | 0.029 µM | 0.131 µM |
| Cc1nc2ccc(-c3cc(N)nc(N)c3)nc2n1C1CCSCC1 [Example 66, 4-[2-methyl-3-(tetrahydro-2H-thiopyran-4-yl)-3H-imidazo[4,5-b]pyridin-5-yl]pyridine-2,6-diamine] | 0.009 µM | 0.012 µM | 0.365 µM | 0.005 µM | 0.072 µM |
| Cc1nc2ccc(-c3cc(N)nc(N)c3)nc2n1[C@H](C)c1ccnc(F)c1 [Example 149, 4-{3-[(1R)-1-(2-fluoropyridin-4-yl)ethyl]-2-methyl-3H-imidazo[4,5-b]pyridin-5-yl}pyridine-2,6-diamine] | 0.026 µM | 0.004 µM | > 10 µM | 0.01 µM | 0.33 µM |
| COc1cccc(CCn2c(C)nc3ccc(-c4cc(N)nc(N)c4)nc32)c1 [Example 152, 4-{3-[2-(3-methoxyphenyl)ethyl]-2-methyl-3H-imidazo[4,5-b]pyridin-5-yl}pyridine-2,6-diamine] | 0.012 µM | 0.007 µM | > 10 µM | 0.002 µM | 0.22 µM |
| CCCCn1c(C)nc2ccc(-c3cc(N)nc(NC(=O)Cc4ccccc4)c3)nc21 [Example 235, N-[6-amino-4-(3-butyl-2-methyl-3H-imidazo[4,5-b]pyridin-5-yl)pyridin-2-yl]-2-phenylacetamide] | 0.207 µM | 0.091 µM | > 10 µM | 0.013 µM |  |
| Cc1nc2ccc(-c3ccnc(N)c3)nc2n1CCC1CCCCC1 [Example 237, 4-[3-(2-cyclohexylethyl)-2-methyl-3H-imidazo[4,5-b]pyridin-5-yl]pyridin-2-amine] | 0.045 µM | 0.005 µM | 0.718 µM | 0.005 µM |  |

More lines, in order of falling IC50 [1], values ahead:

| IC50 [1] | IC50 (DYRK1B) | IC50 (CDK9) | IC50 (DYRK1A [2]) | IC50 (DYRK1A [3]) | SMILES |
| --- | --- | --- | --- | --- | --- |
| 0.046 µM | 0.003 µM | > 10 µM | 0.011 µM |  | CCCCn1c(C)nc2ccc(-c3cc(N)nc(NCc4ccccc4)c3)nc21 [Example 231, N-benzyl-4-(3-butyl-2-methyl-3H-imidazo[4,5-b]pyridin-5-yl)pyridine-2,6-diamine] |
| 0.019 µM | 0.014 µM | 3.03 µM | 0.006 µM | 0.28 µM | COCCCn1c(C)nc2ccc(-c3cc(N)nc(N)c3)nc21 [Example 150, 4-[3-(3-methoxypropyl)-2-methyl-3H-imidazo[4,5-b]pyridin-5-yl]pyridine-2,6-diamine] |
| 0.017 µM | 0.016 µM | 0.554 µM | 0.013 µM | 0.151 µM | CCc1nc2ccc(-c3cc(N)nc(N)c3)nc2n1C1CCCC1 [Example 156, 4-(3-cyclopentyl-2-ethyl-3H-imidazo[4,5-b]pyridin-5-yl)pyridine-2,6-diamine] |
| 0.013 µM | 0.013 µM | > 10 µM | 0.003 µM | 0.08 µM | Cc1nc2ccc(-c3cc(N)nc(N)c3)nc2n1CCc1ccc(Cl)c(Cl)c1 [Example 58, 4-{3-[2-(3,4-dichlorophenyl)ethyl]-2-methyl-3H-imidazo[4,5-b]pyridin-5-yl}pyridine-2,6-diamine] |
| 0.011 µM | 0.008 µM | 0.47 µM | 0.004 µM | 0.11 µM | Cc1nc2ccc(-c3cc(N)nc(N)c3)nc2n1CCC1CCCCC1 [Example 15, 4-[3-(2-cyclohexylethyl)-2-methyl-3H-imidazo[4,5-b]pyridin-5-yl]pyridine-2,6-diamine] |
| 0.01 µM | 0.004 µM | 0.314 µM | 0.013 µM | 0.08 µM | Cc1nc2ccc(-c3cc(N)nc(N)c3)nc2n1C1CCCC1 [Example 1, 4-(3-cyclopentyl-2-methyl-3H-imidazo[4,5-b]pyridin-5-yl)pyridine-2,6-diamine] |
| 0.01 µM | 0.001 µM | 0.383 µM | 0.008 µM | 0.2 µM | CCCn1c(C)nc2ccc(-c3cc(N)nc(N)c3)nc21 [Example 2, 4-(2-methyl-3-propyl-3H-imidazo[4,5-b]pyridin-5-yl)pyridine-2,6-diamine] |
| 0.01 µM | 0.002 µM | 1.78 µM | 0.009 µM | 0.07 µM | Cc1nc2ccc(-c3cc(N)nc(N)c3)nc2n1CC(C)C [Example 31, 4-[2-methyl-3-(2-methylpropyl)-3H-imidazo[4,5-b]pyridin-5-yl]pyridine-2,6-diamine] |
| 0.01 µM | 0.008 µM | 0.881 µM | 0.006 µM | 0.089 µM | Cc1nc2ccc(-c3cc(N)nc(N)c3)nc2n1CCOc1ccccn1 [Example 217, 4-{2-methyl-3-[2-(pyridin-2-yloxy)ethyl]-3H-imidazo[4,5-b]pyridin-5-yl}pyridine-2,6-diamine] |
| 0.009 µM | 0.004 µM | > 10 µM | 0.002 µM | 0.155 µM | Cc1nc2ccc(-c3cc(N)nc(N)c3)nc2[nH]1 [Example 61, 4-(2-methyl-3H-imidazo[4,5-b]pyridin-5-yl)pyridine-2,6-diamine] |
| 0.008 µM | 0.007 µM | > 10 µM | 0.003 µM | 0.024 µM | Cc1ccccc1CCn1c(C)nc2ccc(-c3cc(N)nc(N)c3)nc21 [Example 63, 4-{2-methyl-3-[2-(2-methylphenyl)ethyl]-3H-imidazo[4,5-b]pyridin-5-yl}pyridine-2,6-diamine] |
